Experimental data: patent US8658424B2, “Myelinating oligodendrocyte precursor populations” (Wisconsin Alumni Research Foundation, priority 2007, dated 2014)
“Also recorded” adds a separate entry of the source.

What was measured:
Type in all cases: cell-based, human
[1] = system: hESC-derived neuroepithelial cells; assay: Olig2 induction from hESC-derived neuroepithelial cells (immunostaining); conditions: for Olig2-expressing progenitors: treatment during Olig2 induction, SHH 100 ng/ml, purmorphamine 1 μM, day 35
Experimental: hESCs (line H1 and H9; WiCell Research Institute; Madison, Wis.) were cultured on irradiated mouse embryonic fibroblasts (MEF) in a 6-well plate. […] Differentiated colonies were marked and removed physically with a pipette tip and the stem cell state was periodically monitored by expression of Oct4 and SSEA4.
hESCs were then differentiated to primitive neuroepithelial cells in an adherent colony culture for 10 days in a neural induction medium consisting of DMEM/F12, N2 supplement and non-essential amino acids, as detailed elsewhere. […] Chem. Soc. […] The neuroepithelial colonies were gently blown off the surface by a pipette and grown as floating clusters in suspension in the same medium.
(§1) Immuno-fluorescent staining on coverslip cultures and free-floating brain sections was described previously. […] Specificity of the antibodies was first tested in embryonic brain and spinal cord tissues. Li et al., supra; and Pankratz et al., supra. Negative controls without primary and secondary antibody were performed in all experiments to monitor non-specific staining. The stained samples were visualized with a Nikon TE600 fluorescent scope equipped with a SPOT camera and software (Diagnostic Instruments; Sterling Heights, Mich.), as well as a Nikon C1 laser scanning confocal microscope.
(§2) At least three coverslips were counted for every group. The experiments were repeated three times with different batches of cells.

[2] = system: hESC-derived Olig2 progenitors; assay: Differentiation of Olig2 progenitors to OPCs in glial differentiation medium (marker immunostaining); conditions: for timing of OPC differentiation (PDGFRα, NG2, Sox10): added to Olig2/Nkx2.2 progenitors in glial differentiation medium; for OLIG2/PDGFRa double positive OPCs: day 100, treatment from Olig2 induction; for PDGFRα+ OPCs (in words): treated between days 24 and 35, later OPC differentiation
Experimental: Olig2-expressing progenitors usually appeared around day 24 (Li et al., supra). […] FGF2 (R&D; 10 ng/ml) and/or EGF (Sigma; 10 ng/ml) was added to examine their effect on motor neuron differentiation and progenitor proliferation.
From the 5th week of differentiation, FGF2 was replaced with a cocktail of cytokines consisting of PDGFAA, IGF1 and NT3 (all at 10 ng/ml). Du Z, et al., “Induced expression of Olig2 is sufficient for oligodendrocyte specification but not for motoneuron specification and astrocyte repression,” Mol. Cellular Neurosci. […] SHH or purmorphamine was removed around 10 weeks when PDGFRα+ OPCs appeared. The cultures were fed every other day and the progenitor clusters were broken into smaller pieces with polished glass Pasteur pipette every week.
as §1, §2

[3] = system: hESC-derived Olig2 progenitors; assay: Olig2/Nkx2.2 co-expression in Olig2 progenitors (immunostaining); conditions: for cells expressing Olig2 and/or Nkx2.2: treated day 24 to 35, examined day 35; for OLIG2+/NKX2.2+ population: gliogenic progenitors treated day 35 to 50 (purmorphamine 1 uM, cyclopamine 5 μM), examined day 50
Description: (§3) Olig2-expressing progenitors usually appeared around day 24 (Li et al., supra). The culture was then switched to a glial differentiation medium (modified Bottenstein-Sato medium; see, Bottenstein J, et al., “The growth of cells in serum-free hormone-supplemented media,” Methods Enzymol. 58:94-109 (1979); and Bottenstein J, et al., “Selective survival of neurons from chick embryo sensory ganglionic dissociates utilizing serum-free supplemented medium,” Exp. Cell Res. 125:183-190 (1980)) consisting of DMEM, N1 supplement (Sigma; St. Louis, Mo.), T3 (Sigma); 60 ng/ml), biotin (Sigma; 100 ng/ml) and cAMP (Sigma; 1 uM). FGF2 (R&D; 10 ng/ml) and/or EGF (Sigma; 10 ng/ml) was added to examine their effect on motor neuron differentiation and progenitor proliferation.
(§4) Immuno-fluorescent staining on coverslip cultures and free-floating brain sections was described previously. Zhang et al. (2001), supra; Pankratz et al., supra. The following primary antibodies were used in the present study: anti-Olig2 (goat IgG, 1:500, sc-19969, Santa Cruz Biotechnology; Santa Cruz, Calif.), anti-βIII-tubulin (TuJ1, mlgG 1:5000, Sigma), anti-GFAP (mlgG 1:5000, Chemicon), anti-NG2 (mlgG 1:400, BD Pharmingen), anti-HB9 (mlgG 1:50, DSHB, Iowa City, Iowa), anti-PDGFRα (rat IgG 1:1000, gift from Dr. Stallcup WILLIAM STALLCUP, Burnham Institute for Medical Research, burnham.org/default.asp?contentID=203 on the World Wide Web) (Nishiyama A, et al., “Colocalization of NG2 proteoglycan and PDGF alpha-receptor on O2A progenitor cells in the developing rat brain,” J. Neurosci. Res. 43:299-314 (1996)), anti-O4 (1:50, mouse IgM, Chemincon MAB345), MBP (1:500, rabbit IgG, Chemicon), anti-human nuclei (1:200, mouse IgG, Chemicon). Specificity of the antibodies was first tested in embryonic brain and spinal cord tissues. Li et al., supra; and Pankratz et al., supra. Negative controls without primary and secondary antibody were performed in all experiments to monitor non-specific staining. The stained samples were visualized with a Nikon TE600 fluorescent scope equipped with a SPOT camera and software (Diagnostic Instruments; Sterling Heights, Mich.), as well as a Nikon C1 laser scanning confocal microscope.
(§5) For quantification of stained cell populations, optical fields were randomly selected with fixed ROI (region of interest) frame using cell counter plugin of ImageJ (Abramoff M, et al., “Image Processing with ImageJ,” Biophoton. Int. 11:36-42 (2004)) from independent coverslips of the same group. At least three coverslips were counted for every group. The experiments were repeated three times with different batches of cells. Statistical analyses were performed using ANOVA with R (R_Development_Core_Team, 2007).
Continued SHH signaling was required for maintaining gliogenic Olig2 progenitors. Gliogenic Olig2 progenitor cultures (day 35) were grown in the presence or absence of purmorphamine (1 uM), or the presence of cyclopamine (5 μM) for 2 weeks. […] Thus, SHH signaling was continuously needed to maintain the Olig2 progenitors, even though exogenous SHH is now not necessary.

[4] = system: hESC-derived Olig2 progenitors; assay: Motor neuron differentiation of Olig2 progenitors (HB9 and Olig2 immunostaining); conditions: for cells expressing HB9: day 35, cultures with purmorphamine from day 24, with or without FGF2 10 ng/ml; for HB9 expression: day 24 to 35, combined with purmorphamine, FGF2 or EGF 10 ng/ml
Description: as §3, §4, §5
FGF2 (10 ng/ml) was applied to the culture alongside purmorphamine at day 24 (following the appearance of Olig2, but before the differentiation of HB9+ motor neurons). […] Li et al., supra; and Li X & Zhang S, “In vitro differentiation of neural precursors from human embryonic stem cells,” Methods Mol. Biol. 331:169-177 (2006). […] Accordingly, a much larger population (55%) of Olig2 cells was present when FGF2 was present early on. RT-PCR analyses confirmed that Ngn2 and HB9 expression was repressed. Cultures with FGF2 alone (without the presence of SHH or purmorphamine) had few, if any, HB9+ motor neurons or Olig2-expressing progenitors (see FIGS. 4B, C).

[5] = system: hESC-derived Olig2 progenitors; assay: Progenitor proliferation (Ki67 positive cells); conditions: 10 ng/ml, day 24 to 35
Description: as §3
To determine pro-proliferation effects of FGF2, we used another mitogen, EGF, as a control. […] Thus, FGF2 appeared to increase the Olig2+ cells by preventing the differentiation of Olig2 progenitors to motor neurons.

[6] = system: hESC-derived Olig2 progenitors; assay: Differentiation of Olig2 progenitors to OPCs in glial differentiation medium (marker immunostaining); conditions: progenitors cultured in the presence of FGF2 throughout; 13-14 weeks
[7] = system: hESC-derived Olig2 progenitors; assay: FACS analysis of OLIG2+ population; conditions: day 50, with FGF2 versus without FGF2
[8] = system: hESC-derived Olig2 progenitors; assay: RT-PCR gene expression in progenitor cultures

## sonic hedgehog [SHH]
[1]; one week following SHH treatment
  onset of Olig2 expression: ~23 day of differentiation
[1]
  Olig2-expressing progenitors: present
[2]
  timing of OPC differentiation (PDGFRα, NG2, Sox10): did not speed up the differentiation of OPCs
  OLIG2/PDGFRa double positive OPCs: present
[3]
  cells expressing Olig2 and/or Nkx2.2: co-express; also recorded: sustained Olig2 progenitor population

## CC1=C2C[C@H]3[C@@H](CC=C4C[C@@H](O)CC[C@@]43C)[C@@H]2CC[C@]12O[C@@H]1C[C@H](C)CN[C@H]1[C@H]2C [cyclopamine]
[1]
  Olig2-expressing progenitors: rarely; also recorded: blocked Olig2 transcription; also recorded: near absence of Olig2 cells
[2]
  OLIG2/PDGFRa double positive OPCs: rarely; also recorded: lack of OPCs
  PDGFRα+ OPCs (in words): few OPCs were present
[3]
  OLIG2+/NKX2.2+ population: not and few cells expressing Olig2 and/or Nkx2.2
  cells expressing Olig2 and/or Nkx2.2: near complete lack of cells expressing Olig2 and/or Nkx2.2

## c1ccc2c(Oc3nc(Nc4ccc(N5CCOCC5)cc4)c4ncn(C5CCCCC5)c4n3)cccc2c1 [purmorphamine]
[4]
  cells expressing HB9: 40-50%
[1]
  concentration that produced the highest proportion of Olig2 progenitors: 1 µM
  Olig2-expressing progenitors: present
[1]; purmorphamine 1 uM replacing SHH, p<0.0001
  induction of Olig2 compared with SHH: earlier and more potent induction of Olig2
[1]; purmorphamine versus SHH
  earlier induction of Olig2 expression than SHH: 4 to 5 days
[2]
  timing of OPC differentiation (PDGFRα, NG2, Sox10): did not speed up the differentiation of OPCs
  OLIG2/PDGFRa double positive OPCs: present
[2]; treated day 35 to 50, examined day 100
  PDGFRα+ OPCs: appear
[3]
  OLIG2+/NKX2.2+ population: present
  cells expressing Olig2 and/or Nkx2.2: co-express; also recorded: sustained Olig2 progenitor population
[3]; purmorphamine 1 uM day 35 to 50, day 50, printed comparator: cultures with cyclopamine
  more Olig2/Nkx2.2 double positive cells: about 40%

## EGF: mitogen used as a control for FGF2 (Sigma)
[4]; EGF 10 ng/ml, day 24 to 35
  proportion of Olig2 positive cells: did not increase
[4]
  HB9 expression: moderately decreases
[5]
  proportion of Ki67 positive cells: does not selectively alter; also recorded: did not increase
[2]
  timing of OPC differentiation (PDGFRα, NG2, Sox10): did not speed up the differentiation of OPCs

## FGF2: Fibroblast Growth Factor 2 (R&D)
[4]; FGF2 10 ng/ml with purmorphamine from day 24, day 35
  population of Olig2 cells: 55%
[4]; FGF2 alone, without SHH or purmorphamine
  HB9+ motor neurons or Olig2-expressing progenitors: few, if any
[4]; FGF2 removed at day 35 and RA added back, one to two weeks later
  HB9-expressing cells: hardly any
[4]
  HB9 expression: blocks HB9 expression; also recorded: nearly completely blocked HB9 expression
  cells expressing HB9: less than 5%
[4]; with presence of Pur, 12 days from day 24
  increase of OLIG2+ cells: about 50%
[6]
  GFAP+ astrocytes: 35%
  PDGFRa+ OPCs: 4%
  βIII tubulin+ neurons: 53%
[7]
  decrease in the OLIG2+ population (FACS): 10%
[5]
  proportion of Ki67 positive cells: does not selectively alter
[8]; FGF2 10 ng/ml with purmorphamine, day 24 to 35
  Ngn2 and HB9 expression (RT-PCR): repressed
[8]; FGF2 from day 35
  expression of NFIA (RT-PCR): promoted the expression of NFIA
[8]; FGF2 from day 35 in presence of purmorphamine
  expression of Olig2 (RT-PCR): compromises the effect of purmorphamine to maintain expression of Olig2
[8]; day 50, FGF2 from day 35
  SHH transcript (quantitative RT-PCR): decreases SHH by half
  transcription of GLI2 and GLI3 (quantitative RT-PCR): increases
[2]; FGF2 with purmorphamine days 24-35 versus purmorphamine alone
  total cells generated: substantially more total cells
[2]
  timing of OPC differentiation (PDGFRα, NG2, Sox10): did not speed up the differentiation of OPCs
  PDGFRα+ OPCs (in words): similar
[3]; FGF2 continued from day 35, 7th week
  Nkx2.2 progenitors: did not appear to change significantly
[3]; FGF2 continued from day 35, examined day 50 (7th week)
  Olig2/Nkx2.2 double positive cells: decreased; also recorded: few double positive cells

B1: Noggin: a BMP antagonist known to promote OPC differentiation (protein, UniProt Q13253 28-232, looked up)
Noggin: QHYLHIRPAPSDNLPLVDLIEHPDPIFDPKEKDLNETLLRSLLGGHYDPGFMATSPPEDRPGGGGGAAGGAEDLAELDQLLRQRPSGAMPSEIKGLEFSEGLAQGKKQRLSKKLRRKLQMWLWSQTFCPVLYAWNDLGSRFWPRYVKVGSCFSKRSCSVPEGMVCKPSKSVHLTVLRWRCQRRGGQRCGWIPIQYPIISECKCSC
[2]; Noggin 100 ng/ml at day 35 together with SHH 100 ng/ml
  timing of OPC differentiation: did not result in earlier differentiation of OPCs
